Test results from paper PMC4674309 (Molecular cancer therapeutics, 2015).

Molecular target: IGF-IR (Homo sapiens, UniProt P08069)
Experiment: Western blot of IGF-IR autophosphorylation
Type: cell-based

IGF-IR, sequence (P08069 31-736): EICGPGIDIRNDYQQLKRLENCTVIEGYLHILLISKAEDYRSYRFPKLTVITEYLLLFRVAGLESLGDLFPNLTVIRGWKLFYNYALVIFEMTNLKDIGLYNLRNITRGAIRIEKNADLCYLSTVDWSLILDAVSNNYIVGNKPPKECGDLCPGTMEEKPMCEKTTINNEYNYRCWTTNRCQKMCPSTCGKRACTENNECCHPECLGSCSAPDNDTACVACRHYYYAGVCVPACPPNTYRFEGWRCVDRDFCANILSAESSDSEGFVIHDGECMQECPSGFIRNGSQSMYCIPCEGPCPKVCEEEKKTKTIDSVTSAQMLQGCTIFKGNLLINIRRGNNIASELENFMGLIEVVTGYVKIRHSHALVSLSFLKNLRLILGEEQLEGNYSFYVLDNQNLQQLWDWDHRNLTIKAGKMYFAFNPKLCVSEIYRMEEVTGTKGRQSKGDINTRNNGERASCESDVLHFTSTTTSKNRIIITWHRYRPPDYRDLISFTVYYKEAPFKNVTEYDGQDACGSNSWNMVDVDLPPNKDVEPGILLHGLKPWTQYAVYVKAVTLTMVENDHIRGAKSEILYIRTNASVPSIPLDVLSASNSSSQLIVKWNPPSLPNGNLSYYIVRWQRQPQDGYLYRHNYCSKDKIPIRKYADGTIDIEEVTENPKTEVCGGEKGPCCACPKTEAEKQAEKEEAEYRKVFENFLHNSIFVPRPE
IGF-IR, sequence (P08069 741-1367): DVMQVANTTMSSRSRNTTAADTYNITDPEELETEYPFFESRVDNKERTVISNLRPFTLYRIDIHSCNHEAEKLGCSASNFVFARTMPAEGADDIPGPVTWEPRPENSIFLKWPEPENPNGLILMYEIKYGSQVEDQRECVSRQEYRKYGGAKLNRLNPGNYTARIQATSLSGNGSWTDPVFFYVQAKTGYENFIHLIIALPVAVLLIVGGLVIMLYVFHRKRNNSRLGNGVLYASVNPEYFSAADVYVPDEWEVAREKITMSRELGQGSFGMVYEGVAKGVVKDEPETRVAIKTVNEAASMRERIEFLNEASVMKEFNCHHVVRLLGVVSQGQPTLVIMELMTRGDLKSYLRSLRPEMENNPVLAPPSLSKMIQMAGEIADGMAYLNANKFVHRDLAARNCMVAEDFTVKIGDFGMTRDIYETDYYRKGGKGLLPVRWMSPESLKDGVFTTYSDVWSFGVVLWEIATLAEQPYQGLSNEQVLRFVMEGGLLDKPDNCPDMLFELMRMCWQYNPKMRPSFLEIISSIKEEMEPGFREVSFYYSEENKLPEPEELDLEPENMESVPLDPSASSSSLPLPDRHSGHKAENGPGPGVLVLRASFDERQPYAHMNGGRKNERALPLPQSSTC

IC50: < 2 nM
SMILES: Cc1ccsc1C(=O)Nc1cc(CN2CCN(C(=O)CO)CC2)ccc1/C=C/c1n[nH]c2ccccc12 [KW-2450]
